Reference: patent US20240369550A1, “MACROMOLECULAR STRUCTURES AND USES THEREOF” (The Regents of the University of Michigan, priority 2015, published 2024)
Entries after “also recorded” stand apart in the source; their conditions may differ.

Test system: DNase I
Test: DNase I-mediated degradation of DNA-histone structures (degradation modifier assay)
Assay type: biochemical, bovine
Conditions: LL-37 approx. 0.5, 5 or 50 μM; total Sytox Green fluorescence; relative to structures lacking LL-37 treated with DNase I
Protocol: Time-lapse microscopy and microplate photometry were utilized to measure the overall rate of degradation, and DNA-histone structures were treated with multiple concentrations of DNase I to verify the dose-dependency of this rate (FIG. 3).
1 mg/ml DNase I (MW 31 kDa) was prepared in 10 mM Tris-HCl, 10 mM CaCl2, pH 7.5 (Tris buffer). Each well containing DNA-histone structures (as previously described) was washed 3 times with 150 μl of Tris buffer, and all solutions within each well were removed. 200 μL of the DNase I solution was then added to each well, and time-lapse fluorescent images of each well were acquired.
1 mg/ml LL-37 (MW 4.49 kDa) and 2 mg/ml histones (both in PBS) were added to a solution of 20% w/w PEG/PBS such that the final concentration of histones was approximately 1 mg/ml, and the final concentration of LL-37 in each solution was approximately 0.5 μM, 5 μM, or 50 μM. […]
After complete removal of the solutions in each well, 150 μL of DNase I solution was added to each well. Time-lapse images or measurements of total fluorescence were acquired at a rate of one measurement per minute.

LL-37
overall rate of DNase I-mediated degradation of DNA-histone structures: dose-dependent decrease in the overall rate of DNase I-mediated degradation; also recorded: inhibit the rate of DNase I mediated degradation
